Experimental data published in ChEMBL document CHEMBL1201862, “PubChem BioAssay data set” (2004).
Calls of active or inactive are those of the source. Rule as the data show it: actives have a measured IC50 and inactives only a lower limit.

Biological target: Envelope glycoprotein gp160 (Human immunodeficiency virus 1, UniProt Q6QLK5)
Assay: cell-free HIV fusion peptide-binding blockers – biochemical, uHTS, fluorescence dequenching, […] (AID 1986)

Envelope glycoprotein gp160, sequence (Q6QLK5 whole entry, the tested form may be a part): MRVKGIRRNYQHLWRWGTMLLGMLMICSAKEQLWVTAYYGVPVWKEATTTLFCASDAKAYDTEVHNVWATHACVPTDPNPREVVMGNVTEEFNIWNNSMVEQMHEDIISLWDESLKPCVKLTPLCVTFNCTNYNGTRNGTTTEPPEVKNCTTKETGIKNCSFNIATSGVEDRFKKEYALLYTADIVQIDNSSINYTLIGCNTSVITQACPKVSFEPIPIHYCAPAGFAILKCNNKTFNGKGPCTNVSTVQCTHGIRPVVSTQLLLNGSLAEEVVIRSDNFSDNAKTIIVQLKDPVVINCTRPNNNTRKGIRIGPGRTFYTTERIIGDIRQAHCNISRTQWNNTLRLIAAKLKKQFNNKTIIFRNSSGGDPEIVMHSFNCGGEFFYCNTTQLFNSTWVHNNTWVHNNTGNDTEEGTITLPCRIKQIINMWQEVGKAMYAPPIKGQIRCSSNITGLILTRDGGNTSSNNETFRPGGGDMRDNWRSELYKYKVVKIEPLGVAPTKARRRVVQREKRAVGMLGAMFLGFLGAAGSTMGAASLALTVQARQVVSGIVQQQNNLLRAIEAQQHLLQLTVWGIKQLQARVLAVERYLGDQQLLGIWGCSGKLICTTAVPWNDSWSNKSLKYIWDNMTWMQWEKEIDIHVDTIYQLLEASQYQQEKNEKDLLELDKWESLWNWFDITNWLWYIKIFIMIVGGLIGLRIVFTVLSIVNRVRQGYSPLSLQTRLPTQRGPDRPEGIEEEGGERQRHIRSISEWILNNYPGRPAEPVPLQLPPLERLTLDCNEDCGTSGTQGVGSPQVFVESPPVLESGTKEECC

COc1cc(/C=C2\SC(=O)N(Cc3ccc(F)cc3)C2=O)cc([N+](=O)[O-])c1O
IC50: 19.7 µM (active)

O=C(O)c1ccc(Cl)c(S(=O)(=O)Nc2ccccc2C(=O)Nc2ccc(Cl)cc2)c1
IC50: 17.9 µM (active)

C/C(=N\Nc1ccc(C(=O)O)cc1)c1ccc2c(c1)Nc1ccccc1S2
IC50: 15.4 µM (active)

CC(C)c1ccc(OCC(=O)Nc2cccc(C(=O)Nc3ccccc3C(=O)O)c2)cc1
IC50: 16.9 µM (active)

Cc1cccc(OCC(=O)Nc2ccc(C(=O)Nc3ccccc3C(=O)O)cc2)c1C
IC50: 28.3 µM (active)
